In ChEMBL document CHEMBL1132862, “Structure-activity and crystallographic analysis of a new class of non-amide-based thrombin inhibitor” (Bioorg Med Chem Lett, 2000):

Molecular target: Prothrombin (Homo sapiens, UniProt P00734)
Experiment: Anti- Thrombin activity using standard chromogenic assay

SMILES | Ki [nM]
N=C(N)N1CCC(COc2cc(Cl)cc(OS(=O)(=O)c3ccccc3Cl)c2)CC1 | 30
Cc1cc(OCC2CCN(C(=N)N)CC2)cc(OS(=O)(=O)c2cccc(C(F)(F)F)c2)c1 | 445
Cc1cc(OCC2CCN(C(=N)N)CC2)cc(OS(=O)(=O)c2cccc(C)c2)c1 | 36
CCc1cc(OCC2CCN(C(=N)N)CC2)cc(OS(=O)(=O)c2ccccc2Cl)c1 | 39
COC(=O)c1cc(OCC2CCN(C(=N)N)CC2)cc(OS(=O)(=O)c2ccccc2Cl)c1 | 3700
N=C(N)N1CCC(COc2cc(CO)cc(OS(=O)(=O)c3ccccc3Cl)c2)CC1 | 490
N=C(N)N1CCC(COc2cccc(OS(=O)(=O)c3ccccc3Cl)c2)CC1 | 190
COc1cc(OCC2CCN(C(=N)N)CC2)cc(OS(=O)(=O)c2ccccc2Cl)c1 | 44

Next, values leading:

Ki [nM] | SMILES
16 | Cc1cc(OCC2CC[N+](=C([NH-])N)CC2)cc(OS(=O)(=O)c2ccccc2[N+](=O)[O-])c1 (stereo not given)
327 | Cc1cc(OCC2CC[N+](=C([NH-])N)CC2)cc(OS(=O)(=O)c2ccc([N+](=O)[O-])cc2)c1 (stereo not given)
22 | Cc1cc(OCC2CCN(C(=N)N)CC2)cc(OS(=O)(=O)c2cccc(Cl)c2Cl)c1
32 | Cc1cc(OCC2CCN(C(=N)N)CC2)cc(OS(=O)(=O)c2cccc(N)c2)c1
52 | Cc1cc(OCC2CCN(C(=N)N)CC2)cc(OS(=O)(=O)c2ccccc2N)c1
399 | Cc1cc(OCC2CCN(C(=N)N)CC2)cc(OS(=O)(=O)c2ccc(N)cc2)c1
39 | Cc1cc(OCC2CCN(C(=N)N)CC2)cc(OS(=O)(=O)c2cccc(Cl)c2)c1
28 | COC(=O)c1ccccc1S(=O)(=O)Oc1cc(C)cc(OCC2CCN(C(=N)N)CC2)c1
14 | Cc1cc(OCC2CCN(C(=N)N)CC2)cc(OS(=O)(=O)c2ccccc2C(F)(F)F)c1
35 | Cc1cc(OCC2CCN(C(=N)N)CC2)cc(OS(=O)(=O)c2cccc3ccccc23)c1
115 | Cc1cc(OCC2CC[N+](=C([NH-])N)CC2)cc(OS(=O)(=O)c2cccc([N+](=O)[O-])c2)c1 (stereo not given)
32 | Cc1cc(OCC2CCN(C(=N)N)CC2)cc(OS(=O)(=O)c2ccccc2)c1
